In ChEMBL document CHEMBL4715698, “Design and synthesis of novel selective anaplastic lymphoma kinase inhibitors” (Bioorg Med Chem Lett, 2016):
≈ marks a conversion by molar mass, not a printed value.

Key:
BaF3 = test: Antiproliferative activity against wild type mouse BaF3 cells assessed as reduction in cell growth incubated for 2 to 3 days by Bright-Glo luciferase assay
[1] = Clearance in mouse at 5 mg/kg, iv; type: ADME, organism-based; details: in vivo
[2] = Metabolic stability in rat liver microsomes assessed as intrinsic clearance; type: ADME, Microsome; details: read-out: CLH
[3] = Solubility in DMSO at pH 6.8 by high-throughput solubility assay; type: physicochemical
Cytochrome P450 3A4 = Cytochrome P450 3A4 (Homo sapiens, UniProt P08684); test: Inhibition of CYP3A4 (unknown origin) using midazolam as substrate; type: ADME
[4] = Metabolic stability in human liver microsomes assessed as intrinsic clearance; type: ADME, Microsome; details: read-out: CLH
[5] = Metabolic stability in mouse liver microsomes assessed as intrinsic clearance; type: ADME, Microsome; details: read-out: CLH
[6] = AUC in mouse at 20 mg/kg, po; type: ADME, organism-based; parameters: dose 20 mg/kg; details: in vivo
[7] = Permeability of compound by PAMPA assay; type: ADME
[8] = Volume of distribution at steady state in mouse at 5 mg/kg, iv; type: ADME, organism-based; details: in vivo, read-out: Vdss
[9] = Oral bioavailability in mouse at 20 mg/kg; type: ADME, organism-based; details: in vivo
[10] = Cmax in mouse at 20 mg/kg, po; type: ADME, organism-based; parameters: route oral, dose 20 mg/kg; details: in vivo
[11] = target: ALK tyrosine kinase receptor (Homo sapiens, UniProt Q9UM73); test: Inhibition of ALK (unknown origin)
[12] = Oral bioavailability in rat at 10 mg/kg; type: ADME, organism-based; details: in vivo
[13] = Cmax in rat at 10 mg/kg, po; type: ADME, organism-based; parameters: route oral, dose 10 mg/kg; details: in vivo
[14] = Volume of distribution at steady state in rat at 3 mg/kg, iv; type: ADME, organism-based; details: in vivo, read-out: Vdss
[15] = target: Voltage-gated inwardly rectifying potassium channel KCNH2 (Homo sapiens, UniProt Q12809); test: Inhibition of human ERG by dofetilide binding assay
[16] = AUC in rat at 10 mg/kg, po; type: ADME, organism-based; parameters: dose 10 mg/kg; details: in vivo
[17] = Clearance in rat at 3 mg/kg, iv; type: ADME, organism-based; details: in vivo
[18] = target: Fibroblast growth factor receptor 4 (Homo sapiens, UniProt P22455); test: Inhibition of FGFR4 (unknown origin)
[19] = target: Non-receptor tyrosine-protein kinase TYK2 (Homo sapiens, UniProt P29597); test: Inhibition of TYK2 (unknown origin)
[20] = Inhibition of Aurora (unknown origin); parameters: species or system Homo sapiens
KARPAS-299 [21] = test: Antitumor activity against human KARPAS-299 cells harboring NMP-ALK xenografted in SCID mouse assessed as tumor regression administered for 9 days and measured on day 9; type: functional; details: time 9.0 day
[22] = target: Platelet-derived growth factor receptor alpha (Homo sapiens, UniProt P16234); test: Inhibition of PDGFRalpha (unknown origin)
[23] = target: Hepatocyte growth factor receptor (Homo sapiens, UniProt P08581); test: Inhibition of MET (unknown origin)
[24] = target: Proto-oncogene tyrosine-protein kinase receptor Ret (Homo sapiens, UniProt P07949); test: Inhibition of RET (unknown origin)
[25] = target: Tyrosine-protein kinase ABL1 (Homo sapiens, UniProt P00519); test: Inhibition of ABL (unknown origin)
[26] = target: Glycogen synthase kinase-3 beta (Homo sapiens, UniProt P49841); test: Inhibition of GSK3beta (unknown origin)
[27] = target: Vascular endothelial growth factor receptor 2 (Homo sapiens, UniProt P35968); test: Inhibition of KDR (unknown origin)
[28] = target: Fibroblast growth factor receptor 3 (Homo sapiens, UniProt P22607); test: Inhibition of FGFR3 (unknown origin)
[29] = target: RAC-alpha serine/threonine-protein kinase (Homo sapiens, UniProt P31749); test: Inhibition of AKT (unknown origin)
KARPAS-299 [30] = test: Antitumor activity against human KARPAS-299 cells harboring NMP-ALK xenografted in SCID mouse assessed as tumor shrinkage by measuring T/C ratio at 25 mg/kg administered for 9 days and measured on day 9 (reference value: 100 %); type: functional; details: time 9 day
Ephrin type-B receptor 4 = Ephrin type-B receptor 4 (Homo sapiens, UniProt P54760); test: Inhibition of EphB4 (unknown origin)
[31] = target: Cyclin-dependent kinase 2 (Homo sapiens, UniProt P24941); test: Inhibition of CDK2 (unknown origin)
[32] = target: Receptor tyrosine-protein kinase erbB-2 (Homo sapiens, UniProt P04626); test: Inhibition of HER2 (unknown origin)
[33] = target: Serine/threonine-protein kinase PLK1 (Homo sapiens, UniProt P53350); test: Inhibition of PLK1 (unknown origin)
[34] = target: NPM/ALK (Nucleophosmin/ALK tyrosine kinase receptor) (Homo sapiens, UniProt Q9UM73); test: Inhibition NMP-ALK (unknown origin); type: protein assay
[35] = target: Tyrosine-protein kinase SYK (Homo sapiens, UniProt P43405); test: Inhibition of SYK (unknown origin)
[36] = target: Tyrosine-protein kinase BTK (Homo sapiens, UniProt Q06187); test: Inhibition of BTK (unknown origin)
[37] = target: Mast/stem cell growth factor receptor Kit (Homo sapiens, UniProt P10721); test: Inhibition of c-KIT (unknown origin)
[38] = target: Tyrosine-protein kinase JAK2 (Homo sapiens, UniProt O60674); test: Inhibition of JAK2 (unknown origin)
[39] = target: Tyrosine-protein kinase Lck (Homo sapiens, UniProt P06239); test: Inhibition of LCK (unknown origin)
[40] = target: Tyrosine-protein kinase JAK3 (Homo sapiens, UniProt P52333); test: Inhibition of JAK3 (unknown origin)
[41] = Toxicity in SCID mouse xenografted with human KARPAS-299 cells harboring NMP-ALK assessed as reduction in body weight at 25 to 50 mg/kg administered for 9 days and measured on day 9; type: organism-based; details: in vivo, 216 h, dose 25-50 mg/kg, time 9 day
KARPAS-299 [42] = test: Antitumor activity against human KARPAS-299 cells harboring NMP-ALK xenografted in SCID mouse assessed as tumor regression by measuring T/C ratio at 50 mg/kg administered for 9 days and measured on day 9 (reference value: 100 %); type: functional; details: time 9 day
[43] = target: Mitogen-activated protein kinase 1 (Homo sapiens, UniProt P28482); test: Inhibition of MAPK1 (unknown origin)
[44] = target: Tyrosine-protein kinase JAK1 (Homo sapiens, UniProt P23458); test: Inhibition of JAK1 (unknown origin)
Ephrin type-A receptor 4 = Ephrin type-A receptor 4 (Homo sapiens, UniProt P54764); test: Inhibition of EphA4 (unknown origin)
[45] = target: Insulin-like growth factor 1 receptor (Homo sapiens, UniProt P08069); test: Inhibition of IGF-1R (unknown origin)
[46] = target: Epidermal growth factor receptor (Homo sapiens, UniProt P00533); test: Inhibition of HER1 (unknown origin)
EML4-ALK = EML4-ALK (Homo sapiens, UniProt Q9UM73); test: Inhibition EML4-ALK (unknown origin); type: protein assay

Sequence of Voltage-gated inwardly rectifying potassium channel KCNH2 (Q12809 whole entry): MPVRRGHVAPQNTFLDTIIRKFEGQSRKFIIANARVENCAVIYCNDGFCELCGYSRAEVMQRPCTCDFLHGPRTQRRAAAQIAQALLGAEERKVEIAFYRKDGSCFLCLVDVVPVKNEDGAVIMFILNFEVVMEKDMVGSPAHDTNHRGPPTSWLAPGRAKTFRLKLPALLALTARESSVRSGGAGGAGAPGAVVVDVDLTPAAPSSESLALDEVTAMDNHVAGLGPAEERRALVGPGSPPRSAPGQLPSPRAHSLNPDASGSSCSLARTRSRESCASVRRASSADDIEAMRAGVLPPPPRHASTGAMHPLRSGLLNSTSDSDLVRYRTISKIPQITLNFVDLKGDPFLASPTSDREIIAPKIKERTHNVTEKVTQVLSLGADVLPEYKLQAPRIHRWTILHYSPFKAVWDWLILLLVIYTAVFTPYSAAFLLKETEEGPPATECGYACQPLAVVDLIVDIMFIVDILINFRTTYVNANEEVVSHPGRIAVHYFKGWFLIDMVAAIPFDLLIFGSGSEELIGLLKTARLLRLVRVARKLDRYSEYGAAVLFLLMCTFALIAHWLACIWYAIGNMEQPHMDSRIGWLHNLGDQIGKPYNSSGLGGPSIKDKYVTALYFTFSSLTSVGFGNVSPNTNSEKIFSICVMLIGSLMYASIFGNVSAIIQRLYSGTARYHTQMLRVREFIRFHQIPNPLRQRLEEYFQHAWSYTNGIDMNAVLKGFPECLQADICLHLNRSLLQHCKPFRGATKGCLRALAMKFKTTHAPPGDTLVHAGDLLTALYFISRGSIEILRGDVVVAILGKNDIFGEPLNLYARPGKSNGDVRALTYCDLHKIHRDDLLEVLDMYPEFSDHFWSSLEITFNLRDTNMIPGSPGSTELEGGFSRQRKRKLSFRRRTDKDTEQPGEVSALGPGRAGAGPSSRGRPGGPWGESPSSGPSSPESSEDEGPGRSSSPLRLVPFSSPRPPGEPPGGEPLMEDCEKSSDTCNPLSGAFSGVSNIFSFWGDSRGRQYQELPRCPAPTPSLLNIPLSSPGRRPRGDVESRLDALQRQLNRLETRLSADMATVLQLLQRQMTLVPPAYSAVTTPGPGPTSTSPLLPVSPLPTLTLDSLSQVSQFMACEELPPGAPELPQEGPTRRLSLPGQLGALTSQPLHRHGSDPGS
Sequence of Cytochrome P450 3A4 (P08684 whole entry): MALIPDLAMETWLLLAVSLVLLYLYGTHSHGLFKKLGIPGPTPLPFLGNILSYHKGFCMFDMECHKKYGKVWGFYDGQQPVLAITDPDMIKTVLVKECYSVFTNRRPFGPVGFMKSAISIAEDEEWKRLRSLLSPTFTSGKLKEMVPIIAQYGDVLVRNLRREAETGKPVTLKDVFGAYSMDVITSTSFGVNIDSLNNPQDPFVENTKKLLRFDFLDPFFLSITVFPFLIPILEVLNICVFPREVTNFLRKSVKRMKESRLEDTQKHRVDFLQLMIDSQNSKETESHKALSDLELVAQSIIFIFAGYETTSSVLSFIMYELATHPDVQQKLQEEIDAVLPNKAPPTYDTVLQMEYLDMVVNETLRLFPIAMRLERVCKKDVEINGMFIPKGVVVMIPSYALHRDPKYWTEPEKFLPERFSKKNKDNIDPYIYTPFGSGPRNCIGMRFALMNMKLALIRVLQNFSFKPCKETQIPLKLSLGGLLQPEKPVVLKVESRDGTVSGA
Sequence of ALK tyrosine kinase receptor (Q9UM73 whole entry): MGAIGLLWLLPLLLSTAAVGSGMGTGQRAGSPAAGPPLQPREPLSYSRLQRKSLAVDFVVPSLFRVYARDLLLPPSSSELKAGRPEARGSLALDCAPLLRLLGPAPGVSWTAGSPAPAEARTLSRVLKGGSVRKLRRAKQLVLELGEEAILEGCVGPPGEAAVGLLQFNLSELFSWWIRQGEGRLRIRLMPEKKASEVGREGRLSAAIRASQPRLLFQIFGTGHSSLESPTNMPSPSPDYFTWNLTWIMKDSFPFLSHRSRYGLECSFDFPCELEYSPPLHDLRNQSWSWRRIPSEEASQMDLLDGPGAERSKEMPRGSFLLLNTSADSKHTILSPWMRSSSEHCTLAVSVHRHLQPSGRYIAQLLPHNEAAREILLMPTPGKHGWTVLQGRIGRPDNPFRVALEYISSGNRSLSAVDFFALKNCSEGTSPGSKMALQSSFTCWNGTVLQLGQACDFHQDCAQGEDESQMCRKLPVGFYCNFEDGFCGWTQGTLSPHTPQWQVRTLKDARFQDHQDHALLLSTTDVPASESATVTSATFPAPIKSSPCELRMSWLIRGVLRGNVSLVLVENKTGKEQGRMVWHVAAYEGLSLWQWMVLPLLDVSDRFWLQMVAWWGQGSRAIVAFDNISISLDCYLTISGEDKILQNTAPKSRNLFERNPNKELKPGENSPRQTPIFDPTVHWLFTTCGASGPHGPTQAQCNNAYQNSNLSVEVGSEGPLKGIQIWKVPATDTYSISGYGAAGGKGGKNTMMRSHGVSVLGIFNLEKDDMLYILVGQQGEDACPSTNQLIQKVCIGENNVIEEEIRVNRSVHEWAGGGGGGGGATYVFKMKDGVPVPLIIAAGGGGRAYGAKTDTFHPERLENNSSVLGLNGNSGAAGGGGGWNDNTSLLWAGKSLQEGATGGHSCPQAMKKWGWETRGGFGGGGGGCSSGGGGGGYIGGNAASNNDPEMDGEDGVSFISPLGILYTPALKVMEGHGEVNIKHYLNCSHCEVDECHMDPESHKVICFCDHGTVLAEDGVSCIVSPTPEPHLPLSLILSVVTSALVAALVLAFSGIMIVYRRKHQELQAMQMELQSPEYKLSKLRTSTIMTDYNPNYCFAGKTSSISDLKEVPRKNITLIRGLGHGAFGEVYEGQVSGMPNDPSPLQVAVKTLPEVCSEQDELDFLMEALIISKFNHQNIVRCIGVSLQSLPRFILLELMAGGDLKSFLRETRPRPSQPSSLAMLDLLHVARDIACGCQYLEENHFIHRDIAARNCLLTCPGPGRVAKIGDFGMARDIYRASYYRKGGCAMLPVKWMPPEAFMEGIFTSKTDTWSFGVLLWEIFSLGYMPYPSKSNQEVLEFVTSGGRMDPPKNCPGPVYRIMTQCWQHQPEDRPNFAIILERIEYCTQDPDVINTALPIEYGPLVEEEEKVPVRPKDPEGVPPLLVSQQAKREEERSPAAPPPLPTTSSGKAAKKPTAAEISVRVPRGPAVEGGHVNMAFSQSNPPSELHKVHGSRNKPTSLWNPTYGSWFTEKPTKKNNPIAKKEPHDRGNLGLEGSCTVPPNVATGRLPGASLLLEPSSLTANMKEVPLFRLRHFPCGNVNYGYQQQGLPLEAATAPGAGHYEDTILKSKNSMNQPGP
Sequence of Fibroblast growth factor receptor 3 (P22607 whole entry): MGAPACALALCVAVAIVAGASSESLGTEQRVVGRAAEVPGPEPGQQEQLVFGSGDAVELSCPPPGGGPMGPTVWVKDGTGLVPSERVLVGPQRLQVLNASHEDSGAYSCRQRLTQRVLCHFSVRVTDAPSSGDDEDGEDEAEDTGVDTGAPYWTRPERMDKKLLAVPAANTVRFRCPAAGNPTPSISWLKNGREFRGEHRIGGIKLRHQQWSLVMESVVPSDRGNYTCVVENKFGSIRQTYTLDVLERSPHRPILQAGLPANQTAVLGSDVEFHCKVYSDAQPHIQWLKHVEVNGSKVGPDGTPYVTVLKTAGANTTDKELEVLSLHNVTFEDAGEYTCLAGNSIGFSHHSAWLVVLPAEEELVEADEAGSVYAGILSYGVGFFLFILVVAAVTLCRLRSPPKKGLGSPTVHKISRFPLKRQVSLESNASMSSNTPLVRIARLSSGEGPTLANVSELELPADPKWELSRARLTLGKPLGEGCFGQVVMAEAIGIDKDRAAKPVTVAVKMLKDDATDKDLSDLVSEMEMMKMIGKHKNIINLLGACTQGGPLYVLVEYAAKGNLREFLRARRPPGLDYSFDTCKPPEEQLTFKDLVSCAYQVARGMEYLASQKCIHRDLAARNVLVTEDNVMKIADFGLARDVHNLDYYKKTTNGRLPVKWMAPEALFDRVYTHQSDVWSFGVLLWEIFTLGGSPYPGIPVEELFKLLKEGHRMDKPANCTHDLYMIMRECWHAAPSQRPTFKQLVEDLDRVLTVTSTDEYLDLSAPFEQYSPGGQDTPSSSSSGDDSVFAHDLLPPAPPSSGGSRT
Sequence of Tyrosine-protein kinase BTK (Q06187 whole entry): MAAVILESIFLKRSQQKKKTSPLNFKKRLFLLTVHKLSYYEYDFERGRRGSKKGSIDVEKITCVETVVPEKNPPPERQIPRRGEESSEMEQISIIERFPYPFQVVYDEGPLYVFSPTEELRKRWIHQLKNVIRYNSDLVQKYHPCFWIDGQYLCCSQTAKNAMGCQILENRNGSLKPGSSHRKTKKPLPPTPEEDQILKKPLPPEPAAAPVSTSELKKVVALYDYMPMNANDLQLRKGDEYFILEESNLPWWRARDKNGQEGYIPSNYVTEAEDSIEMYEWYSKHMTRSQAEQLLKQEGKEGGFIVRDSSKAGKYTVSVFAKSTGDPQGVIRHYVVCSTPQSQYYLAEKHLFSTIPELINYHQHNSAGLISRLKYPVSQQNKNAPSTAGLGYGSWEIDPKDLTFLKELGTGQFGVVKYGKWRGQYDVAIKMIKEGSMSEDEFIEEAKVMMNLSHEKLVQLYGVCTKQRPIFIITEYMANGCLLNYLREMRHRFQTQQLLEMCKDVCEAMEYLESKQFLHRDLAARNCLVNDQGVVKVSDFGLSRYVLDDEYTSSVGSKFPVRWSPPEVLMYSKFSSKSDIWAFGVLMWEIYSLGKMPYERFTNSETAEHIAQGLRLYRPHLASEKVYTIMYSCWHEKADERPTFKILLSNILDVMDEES
Sequence of NPM/ALK (Nucleophosmin/ALK tyrosine kinase receptor) (Q9UM73 whole entry): as the sequence (Q9UM73 whole entry) above
Sequence of NPM/ALK (Nucleophosmin/ALK tyrosine kinase receptor) (P06748 whole entry, further chain): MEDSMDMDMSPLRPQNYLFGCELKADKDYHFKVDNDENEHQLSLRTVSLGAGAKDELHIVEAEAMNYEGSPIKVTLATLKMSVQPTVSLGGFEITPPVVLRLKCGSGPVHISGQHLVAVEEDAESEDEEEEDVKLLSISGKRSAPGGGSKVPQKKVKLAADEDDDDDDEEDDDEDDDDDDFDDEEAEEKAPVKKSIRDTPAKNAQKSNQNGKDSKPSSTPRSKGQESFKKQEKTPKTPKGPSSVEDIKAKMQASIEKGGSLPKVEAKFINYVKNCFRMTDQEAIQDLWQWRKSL

Cc1cc(Nc2nc(Nc3ccccc3S(=O)(=O)C(C)C)c3[nH]nnc3n2)c(OC(C)C)cc1C1CCN(C)CC1
IC50 (BaF3): > 10 µM

Cc1cc2c(Nc3ccccc3S(=O)(=O)C(C)C)nc(Nc3cc(C)c(C4CCN(C)CC4)cc3OC(C)C)nc2[nH]1
IC50 (BaF3): 5.73 µM

Cc1cc(Nc2nc(Nc3ccccc3S(=O)(=O)C(C)C)c3cccnc3n2)c(OC(C)C)cc1C1CCNCC1
IC50 (BaF3): 7.23 µM

Cc1cc(NC2=NC3NCCCC3C(Nc3ccccc3S(=O)(=O)C(C)C)=N2)c(OC(C)C)cc1C1CCNCC1 (configuration not stated)
IC50 (BaF3): 2.03 µM

Cc1cc(Nc2nc(Nc3ccccc3S(=O)(=O)C(C)C)c3c(C)n[nH]c3n2)c(OC(C)C)cc1C1CCNCC1
IC50 (BaF3): 5.54 µM

Cc1cc2c(Nc3ccccc3S(=O)(=O)C(C)C)nc(Nc3cc(C)c(C4CCNCC4)cc3OC(C)C)nc2[nH]1
IC50 (BaF3): 5.41 µM

Cc1cc(Nc2nc(Nc3ccccc3S(=O)(=O)C(C)C)c3cc[nH]c3n2)c(OC(C)C)cc1C1CCNCC1
clearance [1]: 40 mL/min/kg
microsomal CLint [2]: 14 µL/min/mg
solubility [3]: 8.1 µM (≈ 4.56 µg/mL)
IC50 (Cytochrome P450 3A4): 4.6 µM
microsomal CLint [4]: 22 µL/min/mg
microsomal CLint [5]: 15 µL/min/mg
AUC [6]: 0.406 µM·h
log(permeability) [7]: -5.7
Vd [8]: 7.3 L/kg
bioavailability [9]: 3%
Cmax [10]: 51 nM
IC50 (BaF3): 2.22 µM

Cc1cc(Nc2nc(Nc3ccccc3S(=O)(=O)C(C)C)c3ccccc3n2)c(OC(C)C)cc1C1CCN(C)CC1
IC50 (BaF3): 3.24 µM

Cc1cc(Nc2cc(Nc3ccccc3S(=O)(=O)C(C)C)c3cc[nH]c3n2)c(OC(C)C)cc1C1CCN(C)CC1
IC50 [11]: > 25 µM
IC50 (BaF3): 4.91 µM

Cc1cc(Nc2nc(Nc3ccccc3S(=O)(=O)C(C)C)c3cn[nH]c3n2)c(OC(C)C)cc1C1CCNCC1
IC50 (BaF3): 6.22 µM

COc1ccc2nc(Nc3cc(C)c(C4CCN(C)CC4)cc3OC(C)C)nc(Nc3ccccc3S(=O)(=O)C(C)C)c2c1
IC50 (BaF3): 3.94 µM

Cc1cc(Nc2nc(Nc3ccccc3S(=O)(=O)C(C)C)c3cc[nH]c3n2)c(OC(C)C)cc1C1CCN(C)CC1
clearance [1]: 58 mL/min/kg
microsomal CLint [2]: 34 µL/min/mg
solubility [3]: 10.4 µM (≈ 6 µg/mL)
bioavailability [12]: 35%
IC50 (Cytochrome P450 3A4): 4.5 µM
Cmax [13]: 291 nM
microsomal CLint [4]: 25 µL/min/mg
microsomal CLint [5]: 62 µL/min/mg
Vd [14]: 13.7 L/kg
AUC [6]: 5.98 µM·h
log(permeability) [7]: < -3.3
Vd [8]: 10.8 L/kg
IC50 [15]: 1.7 µM
AUC [16]: 7.19 µM·h
bioavailability [9]: 59%
clearance [17]: 15 mL/min/kg
Cmax [10]: 425 nM
IC50 (BaF3): 3.42 µM

Cc1cc(Nc2nc(Nc3ccccc3S(=O)(=O)C(C)C)c3cn[nH]c3n2)c(OC(C)C)cc1C1CCN(C)CC1
microsomal CLint [2]: 30 µL/min/mg
solubility [3]: > 175 µM
IC50 (Cytochrome P450 3A4): 3.3 µM
microsomal CLint [4]: 32 µL/min/mg
microsomal CLint [5]: 37 µL/min/mg
log(permeability) [7]: -4.1
IC50 [15]: 1 µM
IC50 (BaF3): 5.12 µM

Cc1cc(Nc2nc(Nc3ccccc3S(=O)(=O)C(C)C)c3c(C)[nH]nc3n2)c(OC(C)C)cc1C1CCN(C)CC1
clearance [1]: 71 mL/min/kg
IC50 [18]: > 10 µM
microsomal CLint [2]: 33 µL/min/mg
IC50 [19]: > 10 µM
IC50 [20]: > 10 µM
Activity (KARPAS-299 [21]): Dose-dependent effect
IC50 [22]: 9.7 µM
IC50 [23]: 8.1 µM
IC50 [24]: 3.6 µM
solubility [3]: 114 µM (≈ 67.5 µg/mL)
IC50 [25]: 1.4 µM
bioavailability [12]: 35%
IC50 (Cytochrome P450 3A4): > 25 µM
IC50 [26]: 4.3 µM
IC50 [27]: 7.4 µM
IC50 [28]: > 10 µM
IC50 [29]: 7.6 µM
Cmax [13]: 151 nM
T/C (KARPAS-299 [30]): 37%
IC50 (Ephrin type-B receptor 4): 2.9 µM
microsomal CLint [4]: 19 µL/min/mg
microsomal CLint [5]: 13 µL/min/mg
IC50 [31]: 0.92 µM
IC50 [11]: 0.004 µM
IC50 [32]: 7.8 µM
Vd [14]: 19.4 L/kg
AUC [6]: 4.9 µM·h
IC50 [33]: 3.9 µM
IC50 [34]: 0.03 µM
log(permeability) [7]: -4.9
IC50 [35]: > 10 µM
IC50 [36]: 9.4 µM
IC50 [37]: > 10 µM
IC50 [38]: > 10 µM
IC50 [39]: 4.3 µM
Vd [8]: 12.1 L/kg
IC50 [40]: > 10 µM
IC50 [15]: 20.8 µM
AUC [16]: 3.07 µM·h
bioavailability [9]: 58%
Activity [41]: Non-Toxic
clearance [17]: 32 mL/min/kg
T/C (KARPAS-299 [42]): -54%
IC50 [43]: > 10 µM
IC50 [44]: > 10 µM
IC50 (Ephrin type-A receptor 4): > 10 µM
Cmax [10]: 429 nM
IC50 [45]: 0.47 µM
IC50 [46]: 0.96 µM
IC50 (EML4-ALK): 0.01 µM
IC50 (BaF3): 2.51 µM

Cc1cc(Nc2nc(Nc3ccccc3S(=O)(=O)C(C)C)c3c(N)n[nH]c3n2)c(OC(C)C)cc1C1CCN(C)CC1
IC50 (BaF3): 4.5 µM

Cc1cc(Nc2cc(Nc3ccccc3S(=O)(=O)C(C)C)nc3[nH]ccc23)c(OC(C)C)cc1C1CCN(C)CC1
IC50 (BaF3): 2.6 µM
